In patent publication US5710245A, “Alpha-helix mimetics and methods relating thereto” (Molecumetics, Ltd., priority 1995, dated 1998):

Test: Circular dichroism (alpha-helicity) of peptide in water
Type: physicochemical
Settings: ratio of mean residue ellipticity at 222 nm to 208 nm, 75 μM in water
Description: Alpha-helicity of a peptide is typically determined by measuring its circular dichroism (CD), and CD data is normally presented as mean residue ellipticies [.THETA.]m. Alpha-helical peptides show two negative Cotton effects at 208 nm and 222 nm, and a positive Cotton effect at 193 nm, while the CD spectra of peptides with random coil secondary structure are dominated by the increasing negative Cotton effect at shorter wavelength. Alpha-helicity may be estimated from the value at 222 nm, and by comparing the negative Cotton effects at 222nm and 208nm. Increasing fraction of [.THETA.]m (222 nm) divided by [.THETA.]m(208 nm) correlates with increasing alpha-helicity. High values for [.THETA.]m(208 nm) compared to [.THETA.]m (222 nm) and a shifting minimum from 208 nm to shorter wavelengths indicate random coil conformation.
An NPY analog having the structure Ac-RAAANLITRQRY--NH2 was synthesized according to standard solid phase peptide synthetic techniques. The NPY analog was then dissolved in water at a concentration of 75 μM, and its CD measured using a JASCO J500 CD spectrometer at a temperature of both 3° C. and 25° C. Structure VI was synthesized according to Example 3, and its CD was similarly measured at both 3° C. and 25° C. (at a concentration of 75 μM).

Question: For “Ac-RAAANLITRQRY-NH2 [NPY Analog, Ac-RAAANLITRQRY--NH2]”, which “Circular Dichroism 222/208 3° C.” value (3° C.) is on record?
Answer: 0.38

Question: And the “Circular Dichroism 222/208 25° C.” value (25° C.)?
Answer: 0.41
